In the test the test system is male White rabbits. Description: Test of cholesterol-lowering effect in rabbits fed 1% cholesterol diet. The format is in vivo. As to the method: The cholesterol-lowering effect of Statan A was compared against a control in male White rabbits (purchased from Hvidesten, DK). The rabbits were housed in individual stainless steel cages with free access to water. The rabbits were divided into groups with similar baseline values of plasma cholesterol, which groups received: • 1) 5 mg/day PD498 (n=2)(Statan A), • 2) control group (n=4).
The rabbits were treated for 3 days. All animals were fed daily with 100 g of a standard rabbit diet (Altromin, Lage, Germany) containing 1% cholesterol. All test drugs were added to the diet. Remaining food were weighed.
Blood samples for cholesterol determination were drawn at baseline and at the three following days. Blood samples were taken from the marginal ear vein and the cholesterol determination was done the same day by enzymatic […] methods, using a commercially available kit (CHOD-PAP, Roche), on a COBAS MIRA auto-analyzer (Roche, Basle, CH).
Ten kg 1% cholesterol chow: 100 g cholesterol is dissolved in 500 g corn oil by heating to 40° C. […]

For `Cc1ccc2ccccc2c1CC[C@@H]1C[C@@H](O)CC(=O)O1` [solistatin], the cholesterol-lowering effect result (rabbits, same method as Example 13) is given as “had cholesterol-lowering effect”. Take `Cc1ccc2cccc(O)c2c1CCC1CC(O)CC(=O)O1` (centres unmarked) [Statan A]: the “Total plasma cholesterol levels compared to the control group” value (male White rabbits, 5 mg/day in 1% cholesterol diet, treated for 3 days, blood at baseline and three following days, FIG. 2) is “consistently lower”.

These data come from patent publication US7304091B2, “Statin-like compounds” (Myco TeO A/S, priority 2001, dated 2007).
